Data: the NIST ThermoML archive (doi:10.1016/j.jct.2011.08.016)

Experiment: xn = mol fraction of the nth substance listed
Settings: Liquid, Vibrating tube method

CCCCCCCCCC [decane] + CCCCCCC
Settings	mass density [kg/m3]
343.11 K, 10000 kPa, x2 = 0.2594	691.9
343.11 K, 10000 kPa, x2 = 0.952	656.24
343.11 K, 11000 kPa, x2 = 0.2594	692.89
343.11 K, 11000 kPa, x2 = 0.952	657.38
343.11 K, 12000 kPa, x2 = 0.2594	693.86
343.11 K, 12000 kPa, x2 = 0.952	658.49
343.11 K, 13000 kPa, x2 = 0.2594	694.82
343.11 K, 13000 kPa, x2 = 0.952	659.59
343.11 K, 14000 kPa, x2 = 0.2594	695.76
343.11 K, 14000 kPa, x2 = 0.952	660.67
343.11 K, 15000 kPa, x2 = 0.2594	696.69
343.11 K, 15000 kPa, x2 = 0.952	661.74
343.11 K, 16000 kPa, x2 = 0.2594	697.6
343.11 K, 16000 kPa, x2 = 0.952	662.78
343.11 K, 17000 kPa, x2 = 0.2594	698.5
343.11 K, 17000 kPa, x2 = 0.952	663.81
343.11 K, 18000 kPa, x2 = 0.2594	699.38
343.11 K, 18000 kPa, x2 = 0.952	664.84
343.11 K, 19000 kPa, x2 = 0.2594	700.22
343.11 K, 19000 kPa, x2 = 0.952	665.84
343.11 K, 20000 kPa, x2 = 0.2594	701.09
343.11 K, 20000 kPa, x2 = 0.952	666.82
343.11 K, 21000 kPa, x2 = 0.2594	701.92
343.11 K, 21000 kPa, x2 = 0.952	667.78
343.11 K, 22000 kPa, x2 = 0.2594	702.73
343.11 K, 22000 kPa, x2 = 0.952	668.7
343.11 K, 23000 kPa, x2 = 0.2594	703.51
343.11 K, 23000 kPa, x2 = 0.952	669.62
343.11 K, 24000 kPa, x2 = 0.2594	704.28
343.11 K, 24000 kPa, x2 = 0.952	670.52
343.11 K, 25000 kPa, x2 = 0.2594	705.05
343.11 K, 25000 kPa, x2 = 0.952	671.4
353.06 K, 1000 kPa, x2 = 0.0531	682.62
353.06 K, 2000 kPa, x2 = 0.0531	683.77
353.06 K, 3000 kPa, x2 = 0.0531	684.88
353.06 K, 4000 kPa, x2 = 0.0531	685.98
353.06 K, 5000 kPa, x2 = 0.0531	687.07
353.06 K, 6000 kPa, x2 = 0.0531	688.13
353.06 K, 7000 kPa, x2 = 0.0531	689.17
353.06 K, 8000 kPa, x2 = 0.0531	690.21
353.06 K, 9000 kPa, x2 = 0.0531	691.24
353.06 K, 10000 kPa, x2 = 0.0531	692.24
353.06 K, 11000 kPa, x2 = 0.0531	693.24
353.06 K, 12000 kPa, x2 = 0.0531	694.22
353.06 K, 13000 kPa, x2 = 0.0531	695.18
353.06 K, 14000 kPa, x2 = 0.0531	696.13
353.06 K, 15000 kPa, x2 = 0.0531	697.07
353.06 K, 16000 kPa, x2 = 0.0531	698
353.06 K, 17000 kPa, x2 = 0.0531	698.9
353.06 K, 18000 kPa, x2 = 0.0531	699.8
353.06 K, 19000 kPa, x2 = 0.0531	700.69
353.06 K, 20000 kPa, x2 = 0.0531	701.57
353.06 K, 21000 kPa, x2 = 0.0531	702.43
353.06 K, 22000 kPa, x2 = 0.0531	703.3
353.06 K, 23000 kPa, x2 = 0.0531	704.13
353.06 K, 24000 kPa, x2 = 0.0531	704.96
353.06 K, 25000 kPa, x2 = 0.0531	705.78
353.08 K, 1000 kPa, x2 = 0.5219	662.57
353.08 K, 1000 kPa, x2 = 0.777	647.84
353.08 K, 2000 kPa, x2 = 0.5219	663.78
353.08 K, 2000 kPa, x2 = 0.777	649.19
353.08 K, 3000 kPa, x2 = 0.5219	664.95
353.08 K, 3000 kPa, x2 = 0.777	650.47
353.08 K, 4000 kPa, x2 = 0.5219	666.13
353.08 K, 4000 kPa, x2 = 0.777	651.73
353.08 K, 5000 kPa, x2 = 0.5219	667.28
353.08 K, 5000 kPa, x2 = 0.777	653.01
353.08 K, 6000 kPa, x2 = 0.5219	668.44
353.08 K, 6000 kPa, x2 = 0.777	654.25
353.08 K, 7000 kPa, x2 = 0.5219	669.57
353.08 K, 7000 kPa, x2 = 0.777	655.46
353.08 K, 8000 kPa, x2 = 0.5219	670.7
353.08 K, 8000 kPa, x2 = 0.777	656.67
353.08 K, 9000 kPa, x2 = 0.5219	671.82
353.08 K, 9000 kPa, x2 = 0.777	657.88
353.08 K, 10000 kPa, x2 = 0.5219	672.93
353.08 K, 10000 kPa, x2 = 0.777	659.06
353.08 K, 11000 kPa, x2 = 0.5219	674.03
353.08 K, 11000 kPa, x2 = 0.777	660.22
353.08 K, 12000 kPa, x2 = 0.5219	675.1
353.08 K, 12000 kPa, x2 = 0.777	661.36
353.08 K, 13000 kPa, x2 = 0.5219	676.17
353.08 K, 13000 kPa, x2 = 0.777	662.49
353.08 K, 14000 kPa, x2 = 0.5219	677.22
353.08 K, 14000 kPa, x2 = 0.777	663.61
353.08 K, 15000 kPa, x2 = 0.5219	678.26
353.08 K, 15000 kPa, x2 = 0.777	664.7
353.08 K, 16000 kPa, x2 = 0.5219	679.28
353.08 K, 16000 kPa, x2 = 0.777	665.77
353.08 K, 17000 kPa, x2 = 0.5219	680.26
353.08 K, 17000 kPa, x2 = 0.777	666.82
353.08 K, 18000 kPa, x2 = 0.5219	681.28
353.08 K, 18000 kPa, x2 = 0.777	667.86
353.08 K, 19000 kPa, x2 = 0.5219	682.2
